Here are results for 13 compounds from PubChem BioAssay (NCI).

Test systems include CAKI-1 renal; COLO 205 colon; HOP-62 NSCLC; KM12 colon; LOX IMVI melanoma; NCI-H23 lung; NCI-H460 lung; PC-3 prostate; T-47D breast.
What all share (assay): NCI-60 cell line screen, 48 h

Values joined by “and” are separate entries in the source; they are usually repeats but may differ in a detail not shown here. Equal entries are not always repeated.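 Briefly, cells in 96-well plates were exposed to five compound concentrations for 48 h, and endpoints were estimated by linear interpolation. Abbreviation: GI50, concentration required for 50% inhibition of growth. Definition used: TGI = concentration required for complete inhibition of growth.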

For the compound `CCOc1ccc(NC(=S)/N=C/C(C(=O)Nc2ccccc2C)=C(\C)O)cc1`, the TGI in the assay on CAKI-1 renal, in the assay on COLO 205 colon, in the assay with HOP-62 NSCLC, with KM12 colon, in the assay with LOX IMVI melanoma and with NCI-H23 lung was above 100 µM throughout. Also, the TGI with NCI-H460 lung, in the assay with PC-3 prostate and in the assay with T-47D breast was above 100 µM throughout.
As to `CSc1s[s+]c(SC)c1-c1ccccc1`, the TGI in the assay with CAKI-1 renal is 36.4 µM; in the assay on COLO 205 colon it was 32.4 µM; in the assay on HOP-62 NSCLC, 29.4 µM; in the assay with KM12 colon, 33.8 µM; with LOX IMVI melanoma it was 52 µM; with NCI-H23 lung it was 34.7 µM. Also, the TGI with NCI-H460 lung is above 100 µM; with PC-3 prostate it was 54.1 µM; in the assay on T-47D breast, above 100 µM.
For `O=C(Nc1ccccc1)N1N=C(c2ccccc2)C1c1ccccc1` (stereo not drawn), the TGI in the assay on CAKI-1 renal is 95.3 µM; in the assay with COLO 205 colon, above 100 µM; in the assay with KM12 colon, above 100 µM; with LOX IMVI melanoma it was 89.6 µM; with NCI-H23 lung, 72.1 µM; with NCI-H460 lung it was above 100 µM. Besides, the figures for the TGI in the assay on PC-3 prostate and in the assay on T-47D breast were 35.3 µM and above 100 µM, respectively.
With `CC(=O)Nc1ccc(C(=O)N2N=C(C)/C(=C/c3cccc(O)c3)C2=O)cc1`, the TGI in the assay with CAKI-1 renal, in the assay with COLO 205 colon, with HOP-62 NSCLC, in the assay with LOX IMVI melanoma, with NCI-H23 lung and in the assay with NCI-H460 lung was above 100 µM throughout.
Consider `OCc1ccccc1OC1OC(CO)C(O)C(O)C1O` (stereo not drawn), for which the TGI in the assay with CAKI-1 renal, in the assay with COLO 205 colon, with HOP-62 NSCLC, in the assay with KM12 colon, with LOX IMVI melanoma and in the assay with NCI-H23 lung was above 100 µM each time. Also, the TGI with NCI-H460 lung, with PC-3 prostate and in the assay on T-47D breast was above 100 µM in each case.
As to `CSc1nc(Br)nc2c1ncn2C1CC(Oc2ccc(C)cc2)C(COc2ccc(C)cc2)O1` (stereo not drawn), the TGI with CAKI-1 renal, in the assay on COLO 205 colon, in the assay on HOP-62 NSCLC, in the assay on KM12 colon, in the assay on LOX IMVI melanoma and in the assay with NCI-H23 lung was above 100 µM in each case. The TGI with NCI-H460 lung, in the assay on PC-3 prostate and in the assay on T-47D breast was above 100 µM each time.
Turning to `CSc1nc2c(ncn2C2OCC(O)C(O)C2O)c(=O)[nH]1` (stereo not drawn), the TGI in the assay with COLO 205 colon, in the assay on HOP-62 NSCLC, in the assay with KM12 colon, in the assay with LOX IMVI melanoma, in the assay on NCI-H23 lung and with NCI-H460 lung was above 100 µM each time.
For the compound `CC(=O)c1c(O)c(C)c(O)c2c1OC1=CC(=O)C(C(C)=O)C(=O)C12C` (stereo not drawn), the GI50 was 29.5 µM and 10.5 µM in the assay with CAKI-1 renal; 4.71 µM and 19.9 µM in the assay on COLO 205 colon; 3.66 µM and 20.1 µM in the assay on HOP-62 NSCLC; 6.21 µM and 19 µM with KM12 colon; 5.53 µM and 12.6 µM in the assay with LOX IMVI melanoma; 6.72 µM and 18.7 µM with NCI-H23 lung. In addition, the GI50 with NCI-H460 lung was 5.29 µM and 14.5 µM. Moreover, the TGI was 79.8 µM and 26.8 µM in the assay with CAKI-1 renal; 17.4 µM and 54.8 µM in the assay with COLO 205 colon; 12.2 µM and 46.1 µM in the assay with HOP-62 NSCLC; 32.2 µM and 63.5 µM in the assay with KM12 colon; 33.3 µM and 37.9 µM in the assay on LOX IMVI melanoma; 26.6 µM and 49.6 µM in the assay on NCI-H23 lung. In the assay on NCI-H460 lung, the TGI is 20.4 µM and 43.7 µM.
Turning to `C=C1C(=O)C[C@@]23CCC[C@@]12CC(O)C3` (stereo partly drawn), the TGI in the assay with COLO 205 colon was 41.1 µM; with HOP-62 NSCLC, above 100 µM; in the assay with KM12 colon, 51.3 µM; with LOX IMVI melanoma it was 31.3 µM; in the assay with NCI-H23 lung, 53.8 µM; in the assay on NCI-H460 lung, 54.1 µM.
As to `C=CC1(CCC(Br)C(C)(C)Cl)CO1` (stereo not drawn), the TGI with CAKI-1 renal, in the assay with COLO 205 colon, in the assay with HOP-62 NSCLC, in the assay on KM12 colon, with NCI-H460 lung and in the assay with PC-3 prostate was above 10 µM throughout. In addition, the TGI in the assay with T-47D breast was above 10 µM.
Consider `C/C(=N\O)c1ccc(Nc2c3ccccc3nc3occc23)cc1`, for which the TGI in the assay with COLO 205 colon is 0.65 µM; with HOP-62 NSCLC it was above 24.1 µM; in the assay on KM12 colon it was 27.4 µM; in the assay on LOX IMVI melanoma it was above 50 µM; in the assay with NCI-H23 lung it was above 10.8 µM; with NCI-H460 lung it was 5.77 µM. Also, the TGI in the assay with PC-3 prostate was above 50 µM; in the assay with T-47D breast, 25.7 µM.
Consider `COc1ccccc1OC/C(N=Cc1ccncc1)=N/NC(=O)c1ccncc1`, for which the TGI in the assay on CAKI-1 renal, with COLO 205 colon, in the assay with HOP-62 NSCLC, in the assay with KM12 colon, with LOX IMVI melanoma and in the assay with NCI-H23 lung was above 100 µM in each case. For the same compound, the TGI in the assay with NCI-H460 lung, in the assay with PC-3 prostate and with T-47D breast was above 100 µM each time.
Consider `C=C1C(=O)O[C@H]2C(=O)[C@H](C)CCC[C@@](C)(O)/C=C\C[C@@]3(C)O[C@@H]3C[C@@H]12`, for which the TGI in the assay with CAKI-1 renal was found to be 27 µM; in the assay with COLO 205 colon, 30.4 µM; with KM12 colon, 39.3 µM; in the assay on LOX IMVI melanoma, 32.2 µM; with NCI-H23 lung, 68.8 µM; in the assay on NCI-H460 lung it was 76.1 µM. In addition, the values for the TGI with PC-3 prostate and in the assay on T-47D breast were 38.6 µM and 42.3 µM, respectively.
